Where “and” joins values, the source holds several entries; their conditions need not be identical. Identical values can stand only once.
What was measured:
[1] = tested on: white blood cells; assay: mRNA expression profiles of white blood cells after treatment, no diarrhoea vs. diarrhoea subjects; format: in vivo, human; settings: treated; for Signal Value 297_g_at (Tubulin, beta) / Signal Value 477_at (IRF5) / Signal Value 1274_s_at (CDC34) / Signal Value 33336_at (SLC4A1) / Signal Value 33759_at (BPGM) / Signal Value 37285_at (ALAS2) / Signal Value 37405_at (SELENBP1) / Signal Value 39436_at (BNIP3L): average of arrays
Experimental: Samples. Forty-three out of the ninety-one subjects who enrolled in the clinical trial consented to clinical pharmacogenetics analysis. For each subject, two clinical pharmacogenetics blood samples were scheduled: baseline and on Day 2 of Week 1 at hour 24. White blood cell (WBC) pellets were ficoll-hypaque separated from the whole blood by the investigator, frozen at −80° C. mRNA was extracted and profiled on the Affymetrix U95A GeneChip® platform.
mRNA expression profiling analysis. Any array with greater than 20% of genes called present by the Affymetrix MAS5 algorithm was a candidate for the analyses described herein. Affymetrix, “New statistical algorithms for monitoring gene expression on GeneChip® probe arrays.” Affymetrix Technical Notes. (2001). […] Forty-two out of the possible eighty-six arrays met the quality standards needed for analysis.
Statistical analysis. Fisher's Exact tests were performed to compare the demographics of the clinical pharmacogenetics participants to the overall trial population. An analysis of variance (ANOVA) was used to determine whether mRNA gene expression patterns correlated to either treatment status (baseline vs. treated), to experiencing diarrhoea (no diarrhoea vs. diarrhoea) or to whether specific blood cell type levels correlated to experiencing diarrhoea. All statistical analyses were performed using the SigmaStat 2.03 and SAS 8.02 programs.
(§1) Because there were only three subjects who experienced grade 3 diarrhoea, all fifteen subjects who experienced any grade of diarrhoea were grouped together to strengthen the statistical power of this analysis.
A comparison of the mRNA expression profiles of white blood cells identified eight genes with statistically significant differences between the two groups of subjects 24 hours after epothilone B administration. See, TABLE 3.
Compare, TABLE 8 and TABLE 13.

[2] = Rothermel et al. 2003; cited from earlier work
[3] = tested on: adult patients with advanced solid tumours; assay: Phase I open-label dose-escalation trial, maximum tolerated dose and diarrhoea; format: in vivo, human
Experimental: A group of eleven genes were identified as having statistically significant differences in expression levels when comparing the test samples to their respective baseline samples. […] These genes were identified following a […] dose-finding clinical trial, which was undertaken in which epothilone B was administered weekly to adult patients with advanced solid tumours. A clinical pharmacogenetics (CPG) analysis identified biomarker candidates for the incidence of epothilone B-induced diarrhoea. The analysis also identified genomic-based factors (such as mRNA expression profiles) that are associated with the incidence of epothilone B-induced diarrhoea.
The maximum tolerated dose (MTD) for a compound is determined using methods and materials known in the medical and pharmacological arts, for example through dose-escalation experiments. One or more patients is first treated with a low dose of the compound, typically 10% of the dose anticipated to be therapeutic based on results of in vitro cell culture experiments. The patients are observed for a period of time to determine the occurrence of toxicity. Toxicity is typically evidenced as the observation of one or more of the following symptoms: vomiting, diarrhoea, peripheral neuropathy, ataxia, neutropaenia, or elevation of liver enzymes. If no toxicity is observed, the dose is increased 2-fold, and the patients are again observed for evidence of toxicity. This cycle is repeated until a dose producing evidence of toxicity is reached. The dose immediately preceding the onset of unacceptable toxicity is taken as the […]. A determination of the MTD for epothilone B is provided above.
Clinical trial design. This clinical trial was an open-label, dose-escalation trial using a standard Phase I protocol design (3+3 design) of enrolling three-six patients per cohort to establish the maximum tolerated dose. Peripheral whole blood was collected from patients that consented to clinical pharmacogenetics analysis. Two clinical pharmacogenetics blood samples were scheduled: baseline and on Day 2 of Week 1 at hour 24. The core treatment period consisted of two nine-week cycles of weekly intravenous administrations of epothilone B as tolerated by haematologic and other toxicities. The doses of epothilone B used in this trial were 0.3, 0.5, 0.75, 1.1, 1.85, 2.5, 3.0 and 3.6 mg/m^2.
Clinical pharmacogenetics subjects used for the analysis. Epothilone B was administered to subjects as a single intravenous infusion over five minutes in a maximum volume of 20 ml either every week for up to six weeks followed by a three-week wash-out period, or every week for three weeks followed by one week without treatment. The 2.5 mg/m^2 treatment was considered to be the maximum tolerated dose (MTD). Therefore, twenty clinical pharmacogenetics participants who were in the 2.5, 3.0 and 3.6 mg/m^2 treatment groups and whose arrays met the quality standards were used. The rationale behind this decision was based on the assumption that those genes whose expression was affected by the 2.5 mg/m^2 treatment would be more pronounced in 3.0 and 3.6 mg/m^2 treatment groups.
as §1

[4] = tested on: drug-sensitive and multidrug-resistant cells overexpressing P-glycoprotein; settings: cited from earlier work
[5] = 24 hours, any grade of diarrhoea
[6] = CPG subjects, grade 1 diarrhoea
[7] = of twenty CPG subjects, 2.5, 3.0 and 3.6 mg/m^2, irregardless of dose

## C/C(=C\c1csc(C)n1)[C@@H]1C[C@@H]2O[C@]2(C)CCC[C@H](C)[C@H](O)[C@@H](C)C(=O)C(C)(C)[C@@H](O)CC(=O)O1 [epothilone B, Epothilone B]
[1]; [5]
  Fold Change [diarrhoea/no diarrhoea] ALAS2 (37285_at) mRNA: −9.6
  Fold Change [diarrhoea/no diarrhoea] BNIP3L (39436_at) mRNA: −2.8
  Fold Change [diarrhoea/no diarrhoea] BPGM (33759_at) mRNA: −4.9
  Fold Change [diarrhoea/no diarrhoea] CDC34 (1274_s_at) mRNA: −2.2
  Fold Change [diarrhoea/no diarrhoea] IRF5 (477_at) mRNA: 2.9
  Fold Change [diarrhoea/no diarrhoea] SELENBP1 (37405_at) mRNA: −11.3
  Fold Change [diarrhoea/no diarrhoea] SLC4A1 (33336_at) mRNA: −15.3
  Fold Change [diarrhoea/no diarrhoea] Tubulin, beta (297_g_at) mRNA: −3.9
[1]; Diarrhoea (any grade) subjects
  Signal Value 297_g_at (Tubulin, beta): 59
  Signal Value 477_at (IRF5): 278
  Signal Value 1274_s_at (CDC34): 128
  Signal Value 33336_at (SLC4A1): 93
  Signal Value 33759_at (BPGM): 70
  Signal Value 37285_at (ALAS2): 448
  Signal Value 37405_at (SELENBP1): 106
  Signal Value 39436_at (BNIP3L): 1476
[1]; No Diarrhoea subjects
  Signal Value 297_g_at (Tubulin, beta): 232
  Signal Value 477_at (IRF5): 97
  Signal Value 1274_s_at (CDC34): 278
  Signal Value 33336_at (SLC4A1): 1421 and 1422
  Signal Value 33759_at (BPGM): 344
  Signal Value 37285_at (ALAS2): 4292
  Signal Value 37405_at (SELENBP1): 1200
  Signal Value 39436_at (BNIP3L): 4200
[1]; grade 3 diarrhoea
  Fold Change [diarrhoea/no diarrhoea] 297_g_at (Tubulin, beta): −3.0
  Fold Change [diarrhoea/no diarrhoea] 477_at (IRF5): ^f2.7
  Fold Change [diarrhoea/no diarrhoea] 1274_s_at (CDC34): −2.3
  Fold Change [diarrhoea/no diarrhoea] 33336_at (SLC4A1): −15.9
  Fold Change [diarrhoea/no diarrhoea] 33759_at (BPGM): ^f−6.7
  Fold Change [diarrhoea/no diarrhoea] 37285_at (ALAS2): −10.0
  Fold Change [diarrhoea/no diarrhoea] 37405_at (SELENBP1): ^f−10.3
  Fold Change [diarrhoea/no diarrhoea] 39436_at (BNIP3L): −2.8
[1]; grade 3 diarrhoea subjects
  Signal Value 297_g_at (Tubulin, beta): 77
  Signal Value 477_at (IRF5): 264
  Signal Value 1274_s_at (CDC34): 123
  Signal Value 33336_at (SLC4A1): 90
  Signal Value 33759_at (BPGM): 51
  Signal Value 37285_at (ALAS2): 428
  Signal Value 37405_at (SELENBP1): 113
  Signal Value 39436_at (BNIP3L): 1489
[2]
  dose-limiting toxicity (diarrhoea): dose-limiting toxicity
  myelosuppression: no myelosuppression
[3]; CPG subjects
  mean time of experiencing the first episode of diarrhoea after receiving dose: 37 days
[3]; [6]
  maximum time to first episode of diarrhoea: 304 days
  minimum time to first episode of diarrhoea: 6 days
[3]; clinical pharmacogenetics (CPG) subjects
  mean onset of diarrhoea after the scheduled blood draw: 371 ± 18 days
[3]; of twenty CPG subjects, 2.5, 3.0 and 3.6 mg/m^2
  subjects who experienced grade 3 diarrhoea: three
[3]; [7]
  subjects who did not experience diarrhoea: five
  subjects who experienced any grade of diarrhoea: fifteen
[3]; weekly intravenous infusion over five minutes
  maximum tolerated dose (MTD): 2.5 mg/m^2
[4]
  cytotoxicity, drug-sensitive vs. multidrug-resistant cells: equally cytotoxic
